Results: US8673908B2, “Kynurenine production inhibitor” (Kyowa Hakko Kirin Co., Ltd., priority 2008, dated 2014)

system: kynurenine production in IFN-γ-treated KATO-III cells; assay: Inhibitory activity on kynurenine production (Test Example 1); assay type: cell-based; details: Homo sapiens, IFN-γ treatment, culture for 96 hours, read-out: IC50 value, inhibition of kynurenine production
Outline: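 Read-out is absorbance at 480 nm of medium treated with trichloroacetic acid, then p-dimethylaminobenzaldehyde, to quantify kynurenine. DMSO-only wells with and without IFN-γ serve as references. Cells were KATO-III, 2,000 per well, 96 h at 37 °C/5% CO2 with compound (DMSO ≤0.1%) and IFN-γ at 31.25 ng/mL in the added suspension.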

IC50 [nM] | Compound
< 1000 | CCCNS(=O)(=O)Nc1nc2ccccc2nc1OC(c1cnc(C)s1)C(F)(F)F (stereo not drawn) [Compound 323, N-propyl-N′-{3-[2,2,2-trifluoro-1-(2-methylthiazol-5-yl)-ethoxy]quinoxalin-2-yl}sulfuric diamide]
< 1000 | Cc1ncc(C(Oc2nc3ccccc3nc2NS(=O)(=O)NC2CC2)C(F)(F)F)s1 (stereo not drawn) [Compound 324, N-cyclopropyl-N′-{3-[2,2,2-trifluoro-1-(2-methylthiazol-5-yl)ethoxy]quinoxalin-2-yl}sulfuric diamide]
1000 to 10000 | CCCS(=O)(=O)Nc1nc2ccccc2nc1OC(C1CCN(C)CC1)C(F)(F)F (stereo not drawn) [Compound 326, N-{3-[2,2,2-trifluoro-1-(1-methylpiperidin-4-yl)ethoxy]-quinoxalin-2-yl}propane-1-sulfonamide]
1000 to 10000 | CCCNS(=O)(=O)Nc1nc2ccccc2nc1OC(C1CCN(C)CC1)C(F)(F)F (stereo not drawn) [Compound 328, N-propyl-N′-{3-[2,2,2-trifluoro-1-(1-methylpiperidin-4-yl)ethoxy]quinoxalin-2-yl}sulfuric diamide]
< 1000 | CCCS(=O)(=O)Nc1nc2ccccc2nc1OC(C1CCN(C(C)=O)CC1)C(F)(F)F (stereo not drawn) [Compound 330, N-{3-[2,2,2-trifluoro-1-(1-acetylpiperidin-4-yl)ethoxy]-quinoxalin-2-yl}propane-1-sulfonamide]
< 1000 | CCCS(=O)(=O)Nc1nc2ccccc2nc1OC(c1cncc(C)c1)C(F)(F)F (stereo not drawn) [Compound 331, N-{3-[2,2,2-trifluoro-1-(5-methylpyridin-3-yl)ethoxy]-quinoxalin-2-yl}propane-1-sulfonamide]
< 1000 | CCCS(=O)(=O)Nc1nc2ccccc2nc1OC(c1cncc(F)c1)C(F)(F)F (stereo not drawn) [Compound 332, N-{3-[2,2,2-trifluoro-1-(5-fluoropyridin-3-yl)ethoxy]-quinoxalin-2-yl}propane-1-sulfonamide]
< 1000 | CCCS(=O)(=O)Nc1nc2ccccc2nc1OC(c1cncc(OC)c1)C(F)(F)F (stereo not drawn) [Compound 334, N-{3-[2,2,2-trifluoro-1-(5-methoxypyridin-3-yl)ethoxy]-quinoxalin-2-yl}propane-1-sulfonamide]
< 1000 | CCCS(=O)(=O)Nc1nc2ccccc2nc1OC(c1cncc(Cl)c1)C(F)(F)F (stereo not drawn) [Compound 335, N-{3-[2,2,2-trifluoro-1-(5-chloropyridin-3-yl)ethoxy]-quinoxalin-2-yl}propane-1-sulfonamide]
< 1000 | CCCS(=O)(=O)Nc1nc2ccccc2nc1OC(C1CCN(S(C)(=O)=O)CC1)C(F)(F)F (stereo not drawn) [Compound 336, N-{3-[2,2,2-trifluoro-1-(1-methanesulfonylpiperidin-4-yl)-ethoxy]quinoxalin-2-yl}propane-1-sulfonamide]
< 1000 | CCCS(=O)(=O)Nc1nc2ccccc2nc1OC(C1CCN(C(=O)OC)CC1)C(F)(F)F (stereo not drawn) [Compound 337, N-{3-[2,2,2-trifluoro-1-(1-methoxycarbonylpiperidin-4-yl)-ethoxy]quinoxalin-2-yl}propane-1-sulfonamide]
< 1000 | CCCS(=O)(=O)Nc1nc2ccccc2nc1OC(C1CCN(C(=O)CC)CC1)C(F)(F)F (stereo not drawn) [Compound 340, N-{3-[2,2,2-trifluoro-1-(1-propionylpiperidin-4-yl)ethoxy]-quinoxalin-2-yl}propane-1-sulfonamide]
< 1000 | CCCS(=O)(=O)Nc1nc2ccccc2nc1OC(C1CCN(C(=O)C2CC2)CC1)C(F)(F)F (stereo not drawn) [Compound 341, N-{3-[2,2,2-trifluoro-1-(1-cyclopropanecarbonylpiperidin-4-yl)ethoxy]quinoxalin-2-yl}propane-1-sulfonamide]
< 1000 | CCCS(=O)(=O)Nc1nc2ccccc2nc1O[C@H](c1cnc(C)s1)C(F)(F)F [Compound 342, (S)—N-{3-[2,2,2-trifluoro-1-(2-methylthiazol-5-yl)ethoxy]-quinoxalin-2-yl}propane-1-sulfonamide]
1000 to 10000 | CCCS(=O)(=O)Nc1nc2ccccc2nc1O[C@@H](c1cnc(C)s1)C(F)(F)F [Compound 343, (R)—N-{3-[2,2,2-trifluoro-1-(2-methylthiazol-5-yl)ethoxy]-quinoxalin-2-yl}propane-1-sulfonamide]
< 1000 | CCCS(=O)(=O)Nc1nc2ccccc2nc1OC(c1csc(C)n1)C(F)(F)F (stereo not drawn) [Compound 344, N-{3-[2,2,2-trifluoro-1-(2-methylthiazol-4-yl)ethoxy]-quinoxalin-2-yl}propane-1-sulfonamide]
1000 to 10000 | CCCS(=O)(=O)Nc1nc2ccccc2nc1OCc1cnc(C)s1 [Compound 345, N-{3-[(2-methylthiazol-5-yl)methoxy]quinoxalin-2-yl}-propane-1-sulfonamide]
1000 to 10000 | CCCS(=O)(=O)Nc1nc2ccccc2nc1O[C@@H](C1CCOCC1)C(F)(F)F [Compound 346, (S)—N-{3-[2,2,2-trifluoro-1-(tetrahydro-2H-pyran-4-yl)-ethoxy]quinoxalin-2-yl}propane-1-sulfonamide]
< 1000 | CCCS(=O)(=O)Nc1nc2ccccc2nc1O[C@H](C1CCOCC1)C(F)(F)F [Compound 347, (R)—N-{3-[2,2,2-trifluoro-1-(tetrahydro-2H-pyran-4-yl)-ethoxy]quinoxalin-2-yl}propane-1-sulfonamide]
< 1000 | CCCS(=O)(=O)Nc1nc2ccccc2nc1O[C@H](c1ccc(Cl)nc1)C(F)(F)F [Compound 348, (R)—N-{3-[2,2,2-trifluoro-1-(6-chloropyridin-3-yl)ethoxy]-quinoxalin-2-yl}propane-1-sulfonamide]
< 1000 | CCCS(=O)(=O)Nc1nc2ccccc2nc1O[C@H](c1cccc(C#N)c1)C(F)(F)F [Compound 349, (R)—N-{3-[2,2,2-trifluoro-1-(3-cyanophenyl)ethoxy]-quinoxalin-2-yl}propane-1-sulfonamide]
< 1000 | CCCS(=O)(=O)Nc1nc2ccccc2nc1OC(C(F)(F)F)C1(F)CCOCC1 (stereo not drawn) [Compound 350, N-{3-[2,2,2-trifluoro-1-(4-fluorotetrahydro-2H-pyran-4-yl)-ethoxy]quinoxalin-2-yl}propane-1-sulfonamide]
< 1000 | CCCS(=O)(=O)Nc1nc2ccccc2nc1OC(C(F)(F)F)C1(C#N)CCOCC1 (stereo not drawn) [Compound 351, N-{3-[2,2,2-trifluoro-1-(4-cyanotetrahydro-2H-pyran-4-yl)-ethoxy]quinoxalin-2-yl}propane-1-sulfonamide]
1000 to 10000 | CCCS(=O)(=O)Nc1nc2ccccc2nc1OC(C(F)(F)F)C1(O)CCOCC1 (stereo not drawn) [Compound 352, N-{3-[2,2,2-trifluoro-1-(4-hydroxytetrahydro-2H-pyran-4-yl)ethoxy]quinoxalin-2-yl}propane-1-sulfonamide]
< 1000 | CCCS(=O)(=O)Nc1nc2ccccc2nc1OC(C(F)(F)F)C1(OC)CCOCC1 (stereo not drawn) [Compound 353, N-{3-[2,2,2-trifluoro-1-(4-methoxytetrahydro-2H-pyran-4-yl)ethoxy]quinoxalin-2-yl}propane-1-sulfonamide]
< 1000 | CCCS(=O)(=O)Nc1nc2ccccc2nc1OC(C(F)(F)F)C1(F)CCN(C(C)=O)CC1 (stereo not drawn) [Compound 354, N-{3-[2,2,2-trifluoro-1-(1-acetyl-4-fluoropiperidin-4-yl)-ethoxy]quinoxalin-2-yl}propane-1-sulfonamide]
< 1000 | CCCS(=O)(=O)Nc1nc2ccccc2nc1OC(C(F)(F)F)C1(F)CCN(S(C)(=O)=O)CC1 (stereo not drawn) [Compound 355, N-{3-[2,2,2-trifluoro-1-(4-fluoro-1-methanesulfonylpiperidin-4-yl)ethoxy]quinoxalin-2-yl}propane-1-sulfonamide]
